From patent publication US9840510B1, “Pyrazolo[1,5-a]pyrimidinyl carboxamide compounds and their use in the treatment of medical disorders” (Lysosomal Therapeutics Inc., priority 2016, dated 2017) come the findings set out here.

The structures appear in SMILES notation. Converted amounts (≈) assume the structure as drawn.

By solubility is commonly meant the dissolved amount per volume that the medium holds. A lower solubility goes with little dissolved substance.

This series in a line: Compound solubility in water. In kind it is physicochemical.
With `Cc1cc(-c2cncc(Cl)c2)nc2c(C(=O)N[C@@H](C3CC3)C(F)(F)F)cnn12` [III-121], the solubility turned out to be 0.7 µg/mL (≈ 1.71 µM).
To `Cc1cc(-c2cnccc2Cl)nc2c(C(=O)NC(C3CC3)C(F)(F)F)cnn12` (centres unmarked) [III-122] belongs 2.1 µg/mL (≈ 5.12 µM).
To `Cc1cc(-c2cccnc2Cl)nc2c(C(=O)NC(C3CC3)C(F)(F)F)cnn12` (centres unmarked) [III-123] belongs 2.1 µg/mL (≈ 5.12 µM).
Compound `Cc1cc(-c2cnccc2F)nc2c(C(=O)NC(C3CC3)C(F)(F)F)cnn12` (centres unmarked) [III-124] yielded a solubility of 1.9 µg/mL (≈ 4.83 µM).
`Cc1cc(-c2cncc(F)c2)nc2c(C(=O)NC(C3CC3)C(F)(F)F)cnn12` (centres unmarked) [III-125] came in with a solubility of 3.4 µg/mL (≈ 8.64 µM).
The value for `Cc1cc(-c2cncc(F)c2)nc2c(C(=O)N[C@H](C3CC3)C(F)(F)F)cnn12` [III-126] was 1.8 µg/mL (≈ 4.58 µM); that for `Cc1cc(-c2cncc(F)c2)nc2c(C(=O)N[C@@H](C3CC3)C(F)(F)F)cnn12` [III-127] was 2.5 µg/mL (≈ 6.36 µM); that for `Cc1cc(-c2cc(F)cc(C#N)c2)nc2c(C(=O)N[C@@H](C)C3CC3)cnn12` [III-128] was 3 µg/mL (≈ 8.26 µM).
The value for `COc1cc(C#N)cc(-c2cc(C)n3ncc(C(=O)N[C@@H](C)C4CC4)c3n2)c1` [III-129] was 0.02 µg/mL (≈ 0.0533 µM).
`Cc1cc(-c2cccc(Cl)n2)nc2c(C(=O)N[C@@H](C)C3CC3)cnn12` [III-131] came in with a solubility of 0.6 µg/mL (≈ 1.69 µM).
To `Cc1cc(-c2cccc(C#N)n2)nc2c(C(=O)NC(C3CC3)C(F)(F)F)cnn12` (centres unmarked) [III-133] belongs 0.2 µg/mL (≈ 0.5 µM).
To `Cc1cc(-c2cccc(F)n2)nc2c(C(=O)N[C@@H](C)C3CC3)cnn12` [III-134] belongs 0.8 µg/mL (≈ 2.36 µM).
To `Cc1cc(-c2cccc(F)n2)nc2c(C(=O)N[C@H](C)C3CC3)cnn12` [III-135] belongs 1.5 µg/mL (≈ 4.42 µM).
`Cc1cc(-c2ccccc2)nc2c(C(=O)N[C@@H](C)C3CC3)cnn12` [III-136]: the concentration in solution (solubility) was 5.1 µg/mL (≈ 15.9 µM).
The value for `COc1cc(F)cc(-c2cc(C)n3ncc(C(=O)N[C@@H](C)C4CC4)c3n2)c1` [III-137] was 0.8 µg/mL (≈ 2.17 µM); that for `COc1c(F)cccc1-c1cc(C)n2ncc(C(=O)N[C@@H](C)C3CC3)c2n1` [III-138] was 2.5 µg/mL (≈ 6.79 µM); that for `COc1c(F)cccc1-c1cc(C)n2ncc(C(=O)NC(C3CC3)C(F)(F)F)c2n1` (centres unmarked) [III-139] was 0.1 µg/mL (≈ 0.237 µM).
To `COc1c(F)cccc1-c1cc(C)n2ncc(C(=O)NC(C)C(F)(F)F)c2n1` (centres unmarked) [III-140] belongs 1.1 µg/mL (≈ 2.78 µM).
To `COc1c(C#N)cccc1-c1cc(C)n2ncc(C(=O)NC(C3CC3)C(F)(F)F)c2n1` (centres unmarked) [III-141] belongs 1.1 µg/mL (≈ 2.56 µM); to `COc1c(C#N)cccc1-c1cc(C)n2ncc(C(=O)NC(C)C(F)(F)F)c2n1` (centres unmarked) [III-142], 2.2 µg/mL (≈ 5.45 µM).
`COc1c(C#N)cccc1-c1cc(C)n2ncc(C(=O)N[C@@H](C)C3CC3)c2n1` [III-143]: the concentration in solution (solubility) was 17.4 µg/mL (≈ 46.3 µM).
To `COc1cc(-c2cc(C)n3ncc(C(=O)N[C@@H](C)C4CC4)c3n2)ccc1F` [III-145] belongs 0.2 µg/mL (≈ 0.543 µM); to `COc1cc(F)ccc1-c1cc(C)n2ncc(C(=O)N[C@@H](C)C3CC3)c2n1` [III-146], 0.9 µg/mL (≈ 2.44 µM).
The value for `COc1cc(-c2cc(C)n3ncc(C(=O)NC(C4CC4)C(F)(F)F)c3n2)ccc1F` (centres unmarked) [III-147] was 0.4 µg/mL (≈ 0.947 µM); that for `COc1cc(-c2cc(C)n3ncc(C(=O)NC(C)C(F)(F)F)c3n2)ccc1F` (centres unmarked) [III-148] was 1.2 µg/mL (≈ 3.03 µM).
The value for `COc1cc(F)ccc1-c1cc(C)n2ncc(C(=O)NC(C3CC3)C(F)(F)F)c2n1` (centres unmarked) [III-149] was 1.1 µg/mL (≈ 2.6 µM); that for `COc1cc(F)ccc1-c1cc(C)n2ncc(C(=O)NC(C)C(F)(F)F)c2n1` (centres unmarked) [III-150] was 0.7 µg/mL (≈ 1.77 µM); that for `Cc1cc(-c2ccc(F)cc2C#N)nc2c(C(=O)NC(C3CC3)C(F)(F)F)cnn12` (centres unmarked) [III-151] was 0.1 µg/mL (≈ 0.24 µM).
In turn, `Cc1cc(-c2ccc(F)cc2C#N)nc2c(C(=O)N[C@@H](C)C3CC3)cnn12` [III-152] yielded a solubility of 0.5 µg/mL (≈ 1.38 µM).
The value for `Cc1cc(-c2ccc(F)cc2C#N)nc2c(C(=O)N[C@H](C)C3CC3)cnn12` [III-153] was 4.5 µg/mL (≈ 12.4 µM); that for `Cc1cc(-c2ccc(F)cc2C#N)nc2c(C(=O)NC(C)C(F)(F)F)cnn12` (centres unmarked) [III-154] was 0.7 µg/mL (≈ 1.79 µM); that for `Cc1cc(-c2ccc(F)cc2C#N)nc2c(C(=O)N[C@@H](C)C(F)(F)F)cnn12` [III-156] was 0.3 µg/mL (≈ 0.767 µM).
Take `Cc1cc(-c2ccc(F)c(C#N)c2)nc2c(C(=O)N[C@@H](C)C3CC3)cnn12` [III-157]: the solubility was found to be 2.9 µg/mL (≈ 7.98 µM).
To `Cc1cc(-c2ccc(F)c(C#N)c2)nc2c(C(=O)NC(C3CC3)C(F)(F)F)cnn12` (centres unmarked) [III-158] belongs 0.3 µg/mL (≈ 0.719 µM).
Take `Cc1cc(-c2ccc(F)c(C#N)c2)nc2c(C(=O)NC(C)C(F)(F)F)cnn12` (centres unmarked) [III-159]: the concentration in solution (solubility) was 3.8 µg/mL (≈ 9.71 µM).
The value for `Cc1cc(-c2ccc(F)c(C(N)=O)c2)nc2c(C(=O)N[C@@H](C)C3CC3)cnn12` [III-160] was 1.1 µg/mL (≈ 2.88 µM); that for `Cc1cc(-c2cccc(C(N)=O)n2)nc2c(C(=O)NC(C3CC3)C(F)(F)F)cnn12` (centres unmarked) [III-161] was 1 µg/mL (≈ 2.39 µM); that for `Cc1cc(-c2ccc(F)c(C(N)=O)c2)nc2c(C(=O)NC(C3CC3)C(F)(F)F)cnn12` (centres unmarked) [III-162] was 1 µg/mL (≈ 2.3 µM).
The value for `Cc1cc(-c2ccc(F)cc2)nc2c(C(=O)NC(C3CC3)C(F)(F)F)cnn12` (centres unmarked) [III-163] was 0.4 µg/mL (≈ 1.02 µM); that for `Cc1cc(-c2ccc(F)cc2)nc2c(C(=O)NC(C)C(F)(F)F)cnn12` (centres unmarked) [III-164] was 1.1 µg/mL (≈ 3 µM).
To `Cc1cc(NC2CC2)nc2c(C(=O)NC(C)C(F)(F)F)cnn12` (centres unmarked) [III-165] belongs 4 µg/mL (≈ 12.2 µM).
In turn, `Cc1cc(NC2CC2)nc2c(C(=O)N[C@@H](C)C3CC3)cnn12` [III-166] returned a solubility of 10.9 µg/mL (≈ 36.4 µM).
To `Cc1cc(-c2ccc3ocnc3c2)nc2c(C(=O)N[C@H](C)C(F)(F)F)cnn12` [III-167] belongs 0.7 µg/mL (≈ 1.8 µM); to `Cc1cc(-c2ccc3ocnc3c2)nc2c(C(=O)N[C@@H](C)C(F)(F)F)cnn12` [III-168], 0.3 µg/mL (≈ 0.771 µM).
The compound `Cc1cc(-c2ccc3ocnc3c2)nc2c(C(=O)NC(C)C(F)(F)F)cnn12` (centres unmarked) [III-169] gave a solubility of 1.6 µg/mL (≈ 4.11 µM).
The value for `Cc1cc(-n2ccc(Cl)n2)nc2c(C(=O)NC(C)C(F)(F)F)cnn12` (centres unmarked) [III-170] was 0.5 µg/mL (≈ 1.34 µM); that for `Cc1cc(-n2ccc(F)n2)nc2c(C(=O)NC(C3CC3)C(F)(F)F)cnn12` (centres unmarked) [III-172] was 0.5 µg/mL (≈ 1.31 µM); that for `Cc1cc(-n2ccc(F)n2)nc2c(C(=O)N[C@H](C3CC3)C(F)(F)F)cnn12` [III-173] was 1.4 µg/mL (≈ 3.66 µM).
To `Cc1cc(-c2cccc(-c3ncccn3)n2)nc2c(C(=O)NC(C3CC3)C(F)(F)F)cnn12` (centres unmarked) [III-175] belongs 1 µg/mL (≈ 2.21 µM); to `Cc1cc(-c2cccc(-c3ncon3)c2)nc2c(C(=O)NC(C3CC3)C(F)(F)F)cnn12` (centres unmarked) [III-176], 0.2 µg/mL (≈ 0.452 µM).
In turn, `Cc1cc(-c2cccc(-c3ncncn3)c2)nc2c(C(=O)NC(C3CC3)C(F)(F)F)cnn12` (centres unmarked) [III-177] yielded a solubility of 0.2 µg/mL (≈ 0.441 µM).
The value for `Cc1cc(-c2ccns2)nc2c(C(=O)NC(C)C(F)(F)F)cnn12` (centres unmarked) [III-178] was 0.7 µg/mL (≈ 1.97 µM); that for `Cc1cc(N2CCCC(F)(F)C2)nc2c(C(=O)NC(C)C(F)(F)F)cnn12` (centres unmarked) [III-179] was 1.1 µg/mL (≈ 2.81 µM).
The value for `Cc1cc(N2CCC(F)(F)C2)nc2c(C(=O)NC(C)C(F)(F)F)cnn12` (centres unmarked) [III-180] was 4.8 µg/mL (≈ 12.7 µM).
In turn, `Cc1cc(N2CCC(F)(F)CC2)nc2c(C(=O)NC(C)C(F)(F)F)cnn12` (centres unmarked) [III-181] came in with a solubility of 4.5 µg/mL (≈ 11.5 µM).
To `Cc1cc(-c2cccc3c2OCO3)nc2c(C(=O)N[C@@H](C)C3CC3)cnn12` [III-182] belongs 0.2 µg/mL (≈ 0.549 µM); to `Cc1cc(-c2cccc3c2OCO3)nc2c(C(=O)NC(C3CC3)C(F)(F)F)cnn12` (centres unmarked) [III-183], 0.5 µg/mL (≈ 1.2 µM).
To `Cc1cc(C)n2ncc(C(=O)NC(c3ccc(F)cc3)C(F)(F)F)c2n1` (centres unmarked) [III-184] belongs 1.1 µg/mL (≈ 3 µM); to `Cc1cc(-c2ccc(C#N)o2)nc2c(C(=O)NC(C3CC3)C(F)(F)F)cnn12` (centres unmarked) [III-185], 6.3 µg/mL (≈ 16.2 µM).
To `Cc1cc(-c2ccco2)nc2c(C(=O)NC(C3CC3)C(F)(F)F)cnn12` (centres unmarked) [III-186] belongs 0.6 µg/mL (≈ 1.65 µM).
For the compound `Cc1cc(-c2ccoc2)nc2c(C(=O)NC(C3CC3)C(F)(F)F)cnn12` (centres unmarked) [III-187], the concentration in solution (solubility) came to 0.5 µg/mL (≈ 1.37 µM).
To `Cc1cc(-c2cscc2C#N)nc2c(C(=O)NC(C3CC3)C(F)(F)F)cnn12` (centres unmarked) [III-188] belongs 0.3 µg/mL (≈ 0.74 µM); to `Cc1cc(-c2sccc2C#N)nc2c(C(=O)NC(C3CC3)C(F)(F)F)cnn12` (centres unmarked) [III-189], 5.1 µg/mL (≈ 12.6 µM); to `Cc1cc(C)n2ncc(C(=O)N[C@H]3CC[C@H](OC(C)(C)C)CC3)c2n1` [III-190], 8.9 µg/mL (≈ 25.8 µM).
`Cc1cc(C)n2ncc(C(=O)N[C@H]3CC[C@H](OCC(C)C)CC3)c2n1` [III-191] gave a solubility of 26.3 µg/mL (≈ 76.4 µM).
The value for `Cc1cc(-c2ccc3scnc3c2)nc2c(C(=O)N[C@@H](C)C3CC3)cnn12` [III-192] was 0.2 µg/mL (≈ 0.53 µM); that for `COc1ccc(F)cc1-c1cc(C)n2ncc(C(=O)NC(C)C(F)(F)F)c2n1` (centres unmarked) [III-194] was 0.4 µg/mL (≈ 1.01 µM).
To `COc1ccc(F)cc1-c1cc(C)n2ncc(C(=O)N[C@H](C)C(F)(F)F)c2n1` [III-195] belongs 0.01 µg/mL (≈ 0.0252 µM).
The value for `Cc1cc(-c2ccns2)nc2c(C(=O)N[C@@H](C)C3CC3)cnn12` [III-197] was 6.5 µg/mL (≈ 19.9 µM); that for `Cc1cc(-c2cnccc2F)nc2c(C(=O)NC(C)C(F)(F)F)cnn12` (centres unmarked) [III-199] was 7.8 µg/mL (≈ 21.2 µM).
`Cc1cc(-c2cncc(Cl)c2)nc2c(C(=O)NC(C)C(F)(F)F)cnn12` (centres unmarked) [III-200] displayed a solubility of 1 µg/mL (≈ 2.61 µM).
To `Cc1cc(-c2cncc(Cl)c2)nc2c(C(=O)N[C@H](C)C(F)(F)F)cnn12` [III-201] belongs 3.1 µg/mL (≈ 8.08 µM); to `Cc1cc(-c2cncc(Cl)c2)nc2c(C(=O)N[C@@H](C)C(F)(F)F)cnn12` [III-202], 2.5 µg/mL (≈ 6.51 µM); to `Cc1cc(-c2ncccc2F)nc2c(C(=O)NC(C3CC3)C(F)(F)F)cnn12` (centres unmarked) [III-203], 0.07 µg/mL (≈ 0.178 µM).
To `Cc1cc(-c2ccc(F)cn2)nc2c(C(=O)NC(C3CC3)C(F)(F)F)cnn12` (centres unmarked) [III-204] belongs 0.1 µg/mL (≈ 0.254 µM).
`Cc1cc(-c2cc(F)ccn2)nc2c(C(=O)NC(C3CC3)C(F)(F)F)cnn12` (centres unmarked) [III-205]: the solubility stood at 0.1 µg/mL (≈ 0.254 µM).
`Cc1cc(-c2ncccc2Cl)nc2c(C(=O)NC(C3CC3)C(F)(F)F)cnn12` (centres unmarked) [III-206] returned a solubility of 2.1 µg/mL (≈ 5.12 µM).
